Assay results from patent US11958865B1, “Leucine-rich repeat kinase 2 (LRRK2) inhibitors” (H. Lundbeck A/S, priority 2022, dated 2024).

How the values were obtained:
LRRK2 G2019S = LRRK2 G2019S (Homo sapiens (Human), UniProt Q5S007, G2019S); experiment: LRRK2 G2019S LanthaScreen TR-FRET kinase activity assay; assay type: biochemical; details: 250 pM kinase, 1.3 mM ATP, n≥2 tests
LRRK2 WT = LRRK2 WT (Homo sapiens (Human), UniProt Q5S007); experiment: LRRK2 wild-type LanthaScreen TR-FRET kinase activity assay; assay type: biochemical; details: 1 nM kinase, 1.3 mM ATP, n≥2 tests
[1] = system: pooled donor, cryopreserved hepatocytes; experiment: Hepatocyte intrinsic clearance assay; assay type: in vitro ADME, Human; details: based on hepatocyte CLint values of Table 5
Summary of the method: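 Compound (0.05 μM final, 0.05% organic) was incubated with pooled-donor cryopreserved hepatocytes (1×10^6/mL) in supplemented Leibovitz L-15, pH 7.4, at 37° C with shaking for 2 h. Samples were taken from 1 to 120 min, quenched in acetonitrile and analyzed by LC-MS/MS.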

[2] = system: panel of 403 wild type kinases; experiment: Broad kinase selectivity, KINOMEscan scanMAX panel; assay type: binding, primarily of human origin; details: 10 nM
Description: Protein kinase profiling of the inhibitors (Fabian, M. A. et al. A small molecule-kinase interaction map for clinical kinase inhibitors. Nat. Biotechnol. 23, 329-336 (2005)) were undertaken at a concentration of 0.010 μM and carried out in Eurofins DiscoverX KINOMEscan scanMAX panel of 403 wild type kinases (primarily of human origin) covering AGC (PKA, PKG, PKC family kinases), CAMK (Calcium/calmodulin-dependent protein kinases), CK1 (Casein kinase 1 kinases), CMGC (CDK, MAPK, GSK3, CLK families), STE (homologs of yeast Sterile 7, Sterile 11, Sterile 20 kinases), TK (Tyrosine kinases), TKL (Tyrosine kinase-like kinases), lipid and atypical kinase families.
Selectivity Score or S-score is a quantitative measure of compound selectivity. It was calculated by dividing the number of kinases that a compound binds to by the total number of distinct kinases tested, excluding mutant variants. S=Number of hits/Number of assays. This value can be calculated using % Ctrl as a potency threshold (below) and provides a quantitative method of describing compound selectivity to facilitate comparison of different compounds.

LRRK2 G2019S, sequence (Q5S007 970-2527 G2019S): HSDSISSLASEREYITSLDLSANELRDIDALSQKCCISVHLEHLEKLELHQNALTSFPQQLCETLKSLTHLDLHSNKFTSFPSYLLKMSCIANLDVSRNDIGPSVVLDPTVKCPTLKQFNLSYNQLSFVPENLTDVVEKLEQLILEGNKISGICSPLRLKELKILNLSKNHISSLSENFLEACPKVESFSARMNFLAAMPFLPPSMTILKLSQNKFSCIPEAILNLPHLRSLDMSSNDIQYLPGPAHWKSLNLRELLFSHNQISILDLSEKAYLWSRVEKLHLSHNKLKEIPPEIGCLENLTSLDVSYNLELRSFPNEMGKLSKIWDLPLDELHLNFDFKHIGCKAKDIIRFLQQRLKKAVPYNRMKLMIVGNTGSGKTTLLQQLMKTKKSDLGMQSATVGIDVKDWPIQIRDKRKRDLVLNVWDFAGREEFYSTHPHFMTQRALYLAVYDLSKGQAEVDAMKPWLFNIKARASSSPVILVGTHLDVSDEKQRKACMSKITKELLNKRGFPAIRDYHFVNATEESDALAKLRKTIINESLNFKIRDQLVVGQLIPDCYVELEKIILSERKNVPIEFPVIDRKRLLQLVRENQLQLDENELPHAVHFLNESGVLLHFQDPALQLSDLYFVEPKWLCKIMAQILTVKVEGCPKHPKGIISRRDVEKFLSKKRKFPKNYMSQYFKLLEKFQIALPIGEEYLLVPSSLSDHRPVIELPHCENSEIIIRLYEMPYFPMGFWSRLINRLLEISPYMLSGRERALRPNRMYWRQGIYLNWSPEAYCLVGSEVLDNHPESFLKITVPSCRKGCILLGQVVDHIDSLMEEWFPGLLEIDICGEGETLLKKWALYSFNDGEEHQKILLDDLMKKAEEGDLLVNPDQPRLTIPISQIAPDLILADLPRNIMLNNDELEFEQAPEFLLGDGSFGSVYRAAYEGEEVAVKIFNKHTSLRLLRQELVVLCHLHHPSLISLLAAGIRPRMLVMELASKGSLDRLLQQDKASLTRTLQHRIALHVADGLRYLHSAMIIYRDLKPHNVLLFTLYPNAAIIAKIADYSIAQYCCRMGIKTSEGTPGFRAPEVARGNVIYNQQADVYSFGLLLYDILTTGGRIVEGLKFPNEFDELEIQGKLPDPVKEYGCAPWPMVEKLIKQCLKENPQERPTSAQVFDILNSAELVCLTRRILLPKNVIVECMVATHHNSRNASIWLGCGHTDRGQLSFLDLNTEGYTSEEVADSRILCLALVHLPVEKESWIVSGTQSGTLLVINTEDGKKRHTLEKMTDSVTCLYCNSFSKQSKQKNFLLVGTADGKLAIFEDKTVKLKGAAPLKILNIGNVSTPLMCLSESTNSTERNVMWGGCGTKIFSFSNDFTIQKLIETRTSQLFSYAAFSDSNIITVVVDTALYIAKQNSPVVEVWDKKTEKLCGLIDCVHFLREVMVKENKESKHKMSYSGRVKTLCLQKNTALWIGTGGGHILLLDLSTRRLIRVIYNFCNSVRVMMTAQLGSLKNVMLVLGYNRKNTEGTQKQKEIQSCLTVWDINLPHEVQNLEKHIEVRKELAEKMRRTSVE
LRRK2 WT, sequence (Q5S007 970-2527): as the sequence (Q5S007 970-2527 G2019S) above, with S1050G counted along it

| SMILES | IC50 (LRRK2 G2019S) | IC50 (LRRK2 WT) | other results |
| --- | --- | --- | --- |
| COc1nccc(C)c1-n1nc2c(c1C)Nc1ncc3c(Cl)nn(c3n1)CCCO2 [Example 7, 8-Chloro-2-(2-methoxy-4-methylpyridin-3-yl)-3-methyl-2,4,12,13-tetrahydro-11H-5,7-(azenometheno)dipyrazolo[3,4-b:5′,1′-g][1]oxa[4,6,8]triazacycloundecine] | 2.3 nM | 6.9 nM | – |
| COc1ncc(C)cc1-n1nc2c(c1C)Nc1ncc3c(Cl)nn(c3n1)CCCO2 [Example 12, 8-Chloro-2-(2-methoxy-5-methylpyridin-3-yl)-3-methyl-2,4,12,13-tetrahydro-11H-5,7-(azenometheno)dipyrazolo[3,4-b:5′,1′-g][1]oxa[4,6,8]triazacycloundecine] | 0.13 nM | 0.4 nM | – |
| COc1nc(C)ncc1-n1nc2c(c1C)Nc1ncc3c(Cl)nn(c3n1)CCCO2 [Example 22, 8-Chloro-2-(4-methoxy-2-methylpyrimidin-5-yl)-3-methyl-2,4,12,13-tetrahydro-11H-5,7-(azenometheno)dipyrazolo[3,4-b:5′,1′-g][1]oxa[4,6,8]triazacycloundecine] | 0.59 nM | 2.1 nM | – |
| Cc1c2c(nn1-c1cccnc1C(C)(F)F)OCCCn1nc(Cl)c3cnc(nc31)N2 [Example 14, 8-Chloro-2-(2-(1,1-difluoroethyl)pyridin-3-yl)-3-methyl-2,4,12,13-tetrahydro-11H-5,7-(azenometheno)dipyrazolo[3,4-b:5′,1′-g][1]oxa[4,6,8]triazacycloundecine] | 4.2 nM | 14 nM | – |
| Cc1nc(C)c(-n2nc3c(c2C)Nc2ncc4c(Cl)nn(c4n2)CCCO3)cc1F [Example 15, 8-Chloro-2-(5-fluoro-2,6-dimethylpyridin-3-yl)-3-methyl-2,4,12,13-tetrahydro-11H-5,7-(azenometheno)dipyrazolo[3,4-b:5′,1′-g][1]oxa[4,6,8]triazacycloundecine] | 1.4 nM | 4 nM | – |
| COc1nc(C)ccc1-n1nc2c(c1C)Nc1ncc3c(Cl)nn(c3n1)CCCO2 [Example 13, 8-Chloro-2-(2-methoxy-6-methylpyridin-3-yl)-3-methyl-2,4,12,13-tetrahydro-11H-5,7-(azenometheno)dipyrazolo[3,4-b:5′,1′-g][1]oxa[4,6,8]triazacycloundecine] | 0.22 nM | 0.57 nM | Rate of metabolism classification (hepatocyte CLint) [1]: moderate to high rate of metabolism |
| COc1ncccc1-n1nc2c(c1C)Nc1ncc3c(Cl)nn(c3n1)CCCO2 [Example 1, 8-Chloro-2-(2-methoxypyridin-3-yl)-3-methyl-2,4,12,13-tetrahydro-11H-5,7-(azenometheno)dipyrazolo[3,4-b:5′,1′-g][1]oxa[4,6,8]triazacycloundecine] | 0.45 nM | 1.1 nM | Selectivity Score S(1) ([2]; hits with % Ctrl <1 / 403 non-mutant kinases): 0.005; Selectivity Score S(10) ([2]; hits with % Ctrl <10 / 403 non-mutant kinases): 0.01; Selectivity Score S(35) ([2]; hits with % Ctrl <35 / 403 non-mutant kinases): 0.03; Number of Hits, S(1) ([2]; kinases with % Ctrl <1, 403 non-mutant kinases, includes LRRK2 WT): 2; Number of Hits, S(10) ([2]; kinases with % Ctrl <10, 403 non-mutant kinases): 4; Number of Hits, S(35) ([2]; kinases with % Ctrl <35, 403 non-mutant kinases): 12 |
